Data on 21 molecules can be found in patent publication US10160747B2, “Compounds and methods for kinase modulation, and indications therefor” (Plexxikon Inc., priority 2016, dated 2018).

Assay [1] has as its target T1, FLT3-D835Y (Homo sapiens, UniProt P36888, D835Y).
T1 construct: purchased Invitrogen PV3967
T1 sequence (P36888 27-993 D835Y): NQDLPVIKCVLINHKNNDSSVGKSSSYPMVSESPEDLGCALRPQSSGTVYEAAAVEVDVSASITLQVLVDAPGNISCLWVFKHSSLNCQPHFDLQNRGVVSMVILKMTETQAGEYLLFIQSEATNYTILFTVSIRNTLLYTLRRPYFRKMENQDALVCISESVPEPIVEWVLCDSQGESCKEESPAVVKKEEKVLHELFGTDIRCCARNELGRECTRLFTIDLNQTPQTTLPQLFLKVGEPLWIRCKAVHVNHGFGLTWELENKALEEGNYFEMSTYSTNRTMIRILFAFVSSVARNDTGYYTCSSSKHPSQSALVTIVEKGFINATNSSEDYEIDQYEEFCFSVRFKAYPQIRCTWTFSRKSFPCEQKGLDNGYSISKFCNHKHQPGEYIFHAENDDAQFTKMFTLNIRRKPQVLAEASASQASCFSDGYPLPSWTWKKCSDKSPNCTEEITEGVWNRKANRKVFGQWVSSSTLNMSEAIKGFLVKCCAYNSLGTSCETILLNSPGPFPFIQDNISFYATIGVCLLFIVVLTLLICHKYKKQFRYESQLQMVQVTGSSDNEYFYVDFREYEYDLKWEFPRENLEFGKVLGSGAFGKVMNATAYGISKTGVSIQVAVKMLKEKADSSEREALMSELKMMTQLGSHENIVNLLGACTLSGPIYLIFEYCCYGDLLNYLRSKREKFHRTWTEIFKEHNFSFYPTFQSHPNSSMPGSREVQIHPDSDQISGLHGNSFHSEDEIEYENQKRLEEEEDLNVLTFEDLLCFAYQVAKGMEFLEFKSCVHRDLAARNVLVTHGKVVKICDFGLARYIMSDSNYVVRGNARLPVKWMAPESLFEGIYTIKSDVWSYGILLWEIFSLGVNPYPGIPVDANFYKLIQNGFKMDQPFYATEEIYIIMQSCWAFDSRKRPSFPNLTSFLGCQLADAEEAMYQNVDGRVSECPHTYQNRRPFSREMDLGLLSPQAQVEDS
The assay is described as follows: FLT3-D835Y recombinant enzyme kinase assay (AlphaScreen). Format: biochemical. The note with it: 8 pt, GMean. In short, it runs like this:
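Substrate 30 nM biotin-GG(EEEEY)10EE; ATP 10 μM (FLT3-ITD, FLT3-D835Y) or 100 μM (c-KIT). Detection: AlphaScreen PY20 kit, 10 μg/mL beads, RT 20 + 60 min. Readout 580 nm; IC50.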
Background: In Alpha technology, singlet oxygen from a donor bead excites a nearby acceptor bead.

The subject of assay [2] is MOLM-14 F691L (endogenous FLT3 ITD and transfected FLT3 F691L). The assay is described as follows: MOLM-14 F691L cell proliferation assay (CellTiter-Glo). In kind it is cell-based. The note with it: Homo sapiens, MOLM-14, 72 h; 3 d growth, GMean. In short, it runs like this:
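Three-day proliferation at 37 °C/5% CO2 of FLT3-ITD MOLM-14 lines with D835Y or F691L mutation, seeded 1×10^4 per well. Compounds at eight points, top 1 μM final, 0.2% DMSO. ATP luminescence (CellTiter-Glo) gives IC50.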
In general terms: Cellular ATP, detected with luciferase, serves as a proxy for viable cell number.

The term IC50 denotes the concentration at which inhibition is half-maximal. Turning to `Cc1cc(CC(=O)Nc2cccc(C(F)(F)F)c2)ccc1-c1cnc2[nH]c(-c3ccccc3)cc2c1` [Compound P-0002, 2-[3-methyl-4-(2-phenyl-1H-pyrrolo[2,3-b]pyridin-5-yl)phenyl]-N-[3-(trifluoromethyl)phenyl]acetamide], the 50% inhibitory concentration (IC50) in assay [1] lay in the range of 0.0001 to 10 µM.

As for `O=C(Cc1ccc(-c2cnc(Nc3cnn(C(F)F)c3)nc2)c(F)c1)Nc1cc(C(F)(F)F)ccn1` [Compound P-0024, 2-[4-[2-[[1-(difluoromethyl)pyrazol-4-yl]amino]pyrimidin-5-yl]-3-fluoro-phenyl]-N-[4-(trifluoromethyl)-2-pyridyl]acetamide], the half-inhibitory concentration (IC50) in assay [2] and in assay [1] was 0.0001 to 10 µM in each case.

With `COc1ncc(NC(=O)Cc2ccc(-c3cnc(Nc4cn[nH]c4)nc3)cc2)cc1C(F)(F)F` [Compound P-0025, N-[6-methoxy-5-(trifluoromethyl)-3-pyridyl]-2-[4-[2-(1H-pyrazol-4-ylamino)pyrimidin-5-yl]phenyl]acetamide], the IC50 in assay [2] and in assay [1] was 0.0001 to 10 µM each time.

Consider `COc1ncc(NC(=O)Cc2ccc(-c3cnc(Nc4cn[nH]c4)nc3)cc2F)cc1C(F)(F)F` [Compound P-0026, 2-[2-fluoro-4-[2-(1H-pyrazol-4-ylamino)pyrimidin-5-yl]phenyl]-N-[6-methoxy-5-(trifluoromethyl)-3-pyridyl]acetamide], for which the half-inhibitory concentration (IC50) in assay [2] and in assay [1] was 0.0001 to 10 µM throughout.

Turning to `Cc1ncc(NC(=O)Cc2ccc(-c3cnc(Nc4cn[nH]c4)nc3)cc2F)cc1C(F)(F)F` [Compound P-0027, 2-[2-fluoro-4-[2-(1H-pyrazol-4-ylamino)pyrimidin-5-yl]phenyl]-N-[6-methyl-5-(trifluoromethyl)-3-pyridyl]acetamide], the IC50 in assay [2] and in assay [1] was 0.0001 to 10 µM each time.

Turning to `O=C(Cc1ccc(-c2cnc3[nH]cc(F)c3c2)cc1F)Nc1ccnc(C(F)(F)F)c1` [Compound P-0029, 2-[2-fluoro-4-(3-fluoro-1H-pyrrolo[2,3-b]pyridin-5-yl)phenyl]-N-[2-(trifluoromethyl)-4-pyridyl]acetamide], the concentration for half-maximal inhibition (IC50) in assay [1] fell in the range of 0.0001 to 10 µM.

On to `O=C(Cc1ccc(-c2cnc3[nH]c(Cl)cc3c2)cc1F)Nc1ccnc(C(F)(F)F)c1` [Compound P-0030, 2-[4-(2-chloro-1H-pyrrolo[2,3-b]pyridin-5-yl)-2-fluoro-phenyl]-N-[2-(trifluoromethyl)-4-pyridyl]acetamide], for which the IC50 in assay [2] is 0.0001 to 10 µM.

Turning to `CC(=O)c1c[nH]c2ncc(-c3ccc(CC(=O)Nc4ccnc(C(F)(F)F)c4)c(F)c3)cc12` [Compound P-0031, 2-(4-(3-acetyl-1H-pyrrolo[2,3-b]pyridin-5-yl)-2-fluorophenyl)-N-(2-(trifluoromethyl)pyridin-4-yl)acetamide], the 50% inhibitory concentration (IC50) in assay [1] fell in the range of 0.0001 to 10 µM.

For `O=C(Cc1ccc(-c2cnc3[nH]cc(C(=O)C4CC4)c3c2)cc1F)Nc1ccnc(C(F)(F)F)c1` [Compound P-0032, 2-[4-[3-(cyclopropanecarbonyl)-1H-pyrrolo[2,3-b]pyridin-5-yl]-2-fluoro-phenyl]-N-[2-(trifluoromethyl)-4-pyridyl]acetamide], the concentration for half-maximal inhibition (IC50) in assay [2] and in assay [1] was 0.0001 to 10 µM each time.

With `O=C(Cc1ccc(-c2cnc(Nc3cnn4ccccc34)nc2)cc1F)Nc1ccnc(C(F)(F)F)c1` [Compound P-0033, 2-[2-fluoro-4-[2-(pyrazolo[1,5-a]pyridin-3-ylamino)pyrimidin-5-yl]phenyl]-N-[2-(trifluoromethyl)-4-pyridyl]acetamide], the IC50 in assay [2] and in assay [1] was 0.0001 to 10 µM throughout.

In the case of `COc1ncc(NC(=O)Cc2ccc(-c3cnc4[nH]cc(F)c4c3)cc2F)cc1C(F)(F)F` [Compound P-0034, 2-[2-fluoro-4-(3-fluoro-1H-pyrrolo[2,3-b]pyridin-5-yl)phenyl]-N-[6-methoxy-5-(trifluoromethyl)-3-pyridyl]acetamide], the IC50 in assay [2] and in assay [1] was 0.0001 to 10 µM in each case.

In the case of `COc1ncc(NC(=O)Cc2ccc(-c3cnc4[nH]cc(C(C)=O)c4c3)cc2F)cc1C(F)(F)F` [Compound P-0035, 2-[4-(3-acetyl-1H-pyrrolo[2,3-b]pyridin-5-yl)-2-fluoro-phenyl]-N-[6-methoxy-5-(trifluoromethyl)-3-pyridyl]acetamide], the IC50 in assay [2] and in assay [1] was 0.0001 to 10 µM throughout.

Consider `COc1ncc(NC(=O)Cc2ccc(-c3cnc4[nH]cc(C(=O)C5CC5)c4c3)cc2F)cc1C(F)(F)F` [Compound P-0036, 2-[4-[3-(cyclopropanecarbonyl)-1H-pyrrolo[2,3-b]pyridin-5-yl]-2-fluoro-phenyl]-N-[6-methoxy-5-(trifluoromethyl)-3-pyridyl]acetamide], for which, in assay [1], the half-inhibitory concentration (IC50) lay in the range of 0.0001 to 10 µM.

Consider `COc1ncc(NC(=O)Cc2ccc(-c3cnc(Nc4cnn5ccccc45)nc3)cc2F)cc1C(F)(F)F` [Compound P-0037, 2-[2-fluoro-4-[2-(pyrazolo[1,5-a]pyridin-3-ylamino)pyrimidin-5-yl]phenyl]-N-[6-methoxy-5-(trifluoromethyl)-3-pyridyl]acetamide], for which the 50% inhibitory concentration (IC50) in assay [2] and in assay [1] was 0.0001 to 10 µM in each case.

`COc1ncc(NC(=O)Cc2ccc(-c3cnc4[nH]c(Cl)cc4c3)cc2F)cc1C(F)(F)F` [Compound P-0038, 2-[4-(2-chloro-1H-pyrrolo[2,3-b]pyridin-5-yl)-2-fluoro-phenyl]-N-[6-methoxy-5-(trifluoromethyl)-3-pyridyl]acetamide] displayed a half-inhibitory concentration (IC50) in assay [2] of 0.0001 to 10 µM.

Regarding `CC(C)(C)c1ccc(NC(=O)Cc2ccc(-c3cnc4[nH]cc(F)c4c3)cc2F)cn1` [Compound P-0043, N-(6-tert-butyl-3-pyridyl)-2-[2-fluoro-4-(3-fluoro-1H-pyrrolo[2,3-b]pyridin-5-yl)phenyl]acetamide], the IC50 in assay [2] and in assay [1] was 0.0001 to 10 µM throughout.

For `COc1ncc(NC(=O)Cc2ccc(-c3cnc4[nH]cc(F)c4c3)c(F)c2)cc1C(F)(F)F` [Compound P-0048, 2-[3-fluoro-4-(3-fluoro-1H-pyrrolo[2,3-b]pyridin-5-yl)phenyl]-N-[6-methoxy-5-(trifluoromethyl)-3-pyridyl]acetamide], the half-inhibitory concentration (IC50) in assay [1] is 0.0001 to 10 µM.

Consider `COc1ncc(NC(=O)Cc2cc(F)c(-c3cnc4[nH]cc(F)c4c3)cc2F)cc1C(F)(F)F` [Compound P-0051, 2-[2,5-difluoro-4-(3-fluoro-1H-pyrrolo[2,3-b]pyridin-5-yl)phenyl]-N-[6-methoxy-5-(trifluoromethyl)-3-pyridyl]acetamide], for which, in assay [1], the half-maximal inhibitory concentration (IC50) was in the range of 0.0001 to 10 µM.

For the molecule `O=C(Cc1cc(F)c(-c2cnc(Nc3cnn4ccccc34)nc2)cc1F)Nc1cncc(C(F)(F)F)c1` [Compound P-0075, 2-[2,5-difluoro-4-[2-(pyrazolo[1,5-a]pyridin-3-ylamino)pyrimidin-5-yl]phenyl]-N-[5-(trifluoromethyl)-3-pyridyl]acetamide], the IC50 in assay [1] lay within 0.0001 to 10 µM.

`Cn1cc(Nc2ncc(-c3ccc(CC(=O)NCc4ccccn4)c(F)c3)cn2)cn1` [Compound P-0088, 2-[2-fluoro-4-[2-[(1-methylpyrazol-4-yl)amino]pyrimidin-5-yl]phenyl]-N-(2-pyridylmethyl)acetamide] displayed an IC50 in assay [2] of 0.0001 to 10 µM.

For the molecule `Cn1cc(Nc2ncc(-c3ccc(CC(=O)NCc4ccc(C(F)(F)F)cn4)cc3)cn2)cn1` [Compound P-0162, 2-[4-[2-[(1-methylpyrazol-4-yl)amino]pyrimidin-5-yl]phenyl]-N-[[5-(trifluoromethyl)-2-pyridyl]methyl]acetamide], the IC50 in assay [2] lay within 0.0001 to 10 µM.
